Assay results as given in ChEMBL document CHEMBL4359860, “Tacrine-O-protected phenolics heterodimers as multitarget-directed ligands against Alzheimer's disease: Selective subnanomolar BuChE inhibitors” (Eur J Med Chem, 2019).
pIC50, pKi: −log10 of the molar value. Calls of active or inactive are those of the source. No cut-off for these calls is given here.

What was measured:
[1] = molecular target: Amyloid-beta precursor protein (Homo sapiens) (UniProt P05067); details: at 50 µM
Description: Inhibition of amyloid beta (1 to 42) (unknown origin) self aggregation at 50 uM incubated for 48 hrs by thioflavin-T fluorescence method relative to control

[2] = system: Cerebellar granule neurone; assay: Neuroprotective activity against 6-OHDA-induced cytotoxicity in rat primary cerebellar granule neuron at 1 to 25 uM by MTT assay; format: functional, cell-based
[3] = molecular target: T1, Cholinesterase (Homo sapiens, UniProt P06276); assay: Potency index, ratio of tacrine IC50 to compound IC50 for human serum BuChe by Ellman's method
[4] = molecular target: T2, Acetylcholinesterase (Electrophorus electricus, UniProt O42275)
Description: Inhibition of electric eel AChE assessed as dissociation constant for enzyme-substrate-inhibitor complex using acetylthiocholine iodide as substrate measured for 125 secs by Ellman's method

[5] = molecular target: T1, Cholinesterase; assay: Inhibition of human serum BuChe by Ellman's method
[6] = system: Primary neuron; assay: Neuroprotective activity against serum/K+ deprivation induced cytotoxicity in rat primary neuronal cells up to 10 uM by MTT assay; format: functional, cell-based
[7] = Cytotoxicity against human HepG2 cells assessed as cell survival at 1 to 25 uM after 24 hrs by MTT assay relative to control; format: cell-based; details: read-out: Activity
[8] = molecular target: T3, Cholinesterase (Equus caballus, UniProt P81908)
Description: Inhibition of equine serum BuChE assessed as dissociation constant for enzyme-substrate-inhibitor complex using butyrylthiocholine iodide as substrate measured for 125 secs by Ellman's method

[9] = molecular target: Acetylcholinesterase (Homo sapiens, UniProt P22303); assay: Inhibition of human recombinant AChE expressed in HEK293 cells using […] as substrate preincubated with enzyme for 20 mins followed by substrate addition and measured after 5 mins by Ellman's method
[10] = Stability of compound in human plasma at 10 uM measured up to 360 mins by LC-MS analysis; format: ADME, cell-free; details: 6 h
[11] = molecular target: T2, Acetylcholinesterase; remark: listed apart in the source
Description: Inhibition of electric eel AChE assessed as dissociation constant for enzyme-inhibitor complex using acetylthiocholine iodide as substrate measured for 125 secs by Ellman's method

[12] = system: Cerebellar granule neurone; assay: Cytotoxicity in rat Primary cerebellar granule neuron assessed as cell viability up to 5 uM after 24 hrs by MTT assay; format: cell-based
[13] = molecular target: T3, Cholinesterase; remark: listed apart in the source
Description: Inhibition of equine serum BuChE assessed as dissociation constant for enzyme-inhibitor complex using butyrylthiocholine iodide as substrate measured for 125 secs by Ellman's method

[14] = molecular target: Cholinesterase (Equus caballus) (UniProt P81908)
[15] = system: T47D; assay: Antiproliferative activity against human T47D cells assessed as growth inhibition after 48 hrs by SRB assay; format: functional
[16] = system: A549; assay: Antiproliferative activity against human A549 cells assessed as growth inhibition after 48 hrs by SRB assay; format: functional; details: A549, 48 h
[17] = system: HBL-100; assay: Antiproliferative activity against human HBL100 cells assessed as growth inhibition after 48 hrs by SRB assay; format: functional; details: HBL-100, 48 h
[18] = system: SW1573; assay: Antiproliferative activity against human SW1573 cells assessed as growth inhibition after 48 hrs by SRB assay; format: functional; details: SW1573, 48 h
[19] = system: HeLa; assay: Antiproliferative activity against human HeLa cells assessed as growth inhibition after 48 hrs by SRB assay; format: functional
[20] = system: WiDr; assay: Antiproliferative activity against human WiDr cells assessed as growth inhibition after 48 hrs by SRB assay; format: functional
[21] = Selectivity index, ratio of GI50 for human hTERT-BJ cells to GI50 for human WiDr cells after 48 hrs by SRB assay; format: toxicity; details: hTERT-BJ cells and WiDr cells, read-out: RatioGI50
[22] = system: T47D; assay: Potency index, ratio of 5-FU GI50 to compound GI50 for human T47D cells after 48 hrs by SRB assay; format: functional
[23] = Cytotoxicity against human hTERT-BJ cells assessed as growth inhibition after 48 hrs by SRB assay; format: cell-based
[24] = Selectivity index, ratio of GI50 for human hTERT-BJ cells to GI50 for human T47D cells after 48 hrs by SRB assay; format: toxicity; details: hTERT-BJ cells and T47D cells, read-out: RatioGI50
[25] = system: WiDr; assay: Potency index, ratio of 5-FU GI50 to compound GI50 for human WiDr cells after 48 hrs by SRB assay; format: functional
[26] = Cytotoxicity in rat Primary cerebellar granule neuron assessed as cell viability at 1 uM after 24 hrs by MTT assay; format: cell-based, Cerebellar granule neurone; details: primary cerebellar granule neurons, read-out: Activity
[27] = system: HepG2; assay: Cytotoxicity against human HepG2 cells at 1 to 25 uM after 24 hrs by MTT assay; format: cell-based; details: hepg2, 24 h
[28] = molecular target: Cholinesterase (Equus caballus) (UniProt P81908); remark: listed apart in the source

T1 sequence (P06276 whole entry): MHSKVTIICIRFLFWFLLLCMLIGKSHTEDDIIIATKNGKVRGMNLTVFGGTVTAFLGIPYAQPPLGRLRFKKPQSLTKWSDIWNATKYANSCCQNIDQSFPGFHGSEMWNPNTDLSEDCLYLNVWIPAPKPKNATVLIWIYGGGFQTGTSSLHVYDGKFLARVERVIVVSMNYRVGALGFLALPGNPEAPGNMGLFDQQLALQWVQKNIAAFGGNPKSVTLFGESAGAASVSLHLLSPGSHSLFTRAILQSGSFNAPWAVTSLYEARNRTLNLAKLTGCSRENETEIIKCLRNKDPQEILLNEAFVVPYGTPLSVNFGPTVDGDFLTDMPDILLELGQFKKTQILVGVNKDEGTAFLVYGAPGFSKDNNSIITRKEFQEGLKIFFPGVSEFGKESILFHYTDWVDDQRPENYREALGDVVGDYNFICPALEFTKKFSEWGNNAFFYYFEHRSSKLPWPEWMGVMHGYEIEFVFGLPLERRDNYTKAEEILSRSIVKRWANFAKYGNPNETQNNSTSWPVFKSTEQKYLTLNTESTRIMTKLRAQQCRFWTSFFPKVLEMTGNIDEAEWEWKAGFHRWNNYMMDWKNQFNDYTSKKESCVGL
Chain of Amyloid-beta precursor protein (Homo sapiens) (P05067 whole entry): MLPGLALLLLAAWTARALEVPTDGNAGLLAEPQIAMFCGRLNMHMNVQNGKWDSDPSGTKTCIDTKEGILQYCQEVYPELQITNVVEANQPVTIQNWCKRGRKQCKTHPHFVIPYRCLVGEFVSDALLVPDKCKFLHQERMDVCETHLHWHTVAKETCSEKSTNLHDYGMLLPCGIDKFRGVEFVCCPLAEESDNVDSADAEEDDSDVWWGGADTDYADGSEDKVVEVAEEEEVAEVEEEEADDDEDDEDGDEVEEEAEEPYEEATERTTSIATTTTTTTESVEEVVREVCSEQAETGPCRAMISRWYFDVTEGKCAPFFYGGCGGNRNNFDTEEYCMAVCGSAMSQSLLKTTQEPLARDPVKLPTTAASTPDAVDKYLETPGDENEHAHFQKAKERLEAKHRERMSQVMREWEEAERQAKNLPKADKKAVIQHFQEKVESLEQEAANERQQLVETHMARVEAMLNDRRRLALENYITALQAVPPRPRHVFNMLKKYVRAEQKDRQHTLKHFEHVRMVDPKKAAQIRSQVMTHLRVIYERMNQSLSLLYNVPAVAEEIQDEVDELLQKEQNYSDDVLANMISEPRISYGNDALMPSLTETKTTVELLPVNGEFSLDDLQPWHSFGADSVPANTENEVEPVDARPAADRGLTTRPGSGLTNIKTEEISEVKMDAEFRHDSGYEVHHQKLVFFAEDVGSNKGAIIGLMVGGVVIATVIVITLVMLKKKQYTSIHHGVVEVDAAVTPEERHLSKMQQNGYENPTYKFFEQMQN
T2 sequence (O42275 whole entry): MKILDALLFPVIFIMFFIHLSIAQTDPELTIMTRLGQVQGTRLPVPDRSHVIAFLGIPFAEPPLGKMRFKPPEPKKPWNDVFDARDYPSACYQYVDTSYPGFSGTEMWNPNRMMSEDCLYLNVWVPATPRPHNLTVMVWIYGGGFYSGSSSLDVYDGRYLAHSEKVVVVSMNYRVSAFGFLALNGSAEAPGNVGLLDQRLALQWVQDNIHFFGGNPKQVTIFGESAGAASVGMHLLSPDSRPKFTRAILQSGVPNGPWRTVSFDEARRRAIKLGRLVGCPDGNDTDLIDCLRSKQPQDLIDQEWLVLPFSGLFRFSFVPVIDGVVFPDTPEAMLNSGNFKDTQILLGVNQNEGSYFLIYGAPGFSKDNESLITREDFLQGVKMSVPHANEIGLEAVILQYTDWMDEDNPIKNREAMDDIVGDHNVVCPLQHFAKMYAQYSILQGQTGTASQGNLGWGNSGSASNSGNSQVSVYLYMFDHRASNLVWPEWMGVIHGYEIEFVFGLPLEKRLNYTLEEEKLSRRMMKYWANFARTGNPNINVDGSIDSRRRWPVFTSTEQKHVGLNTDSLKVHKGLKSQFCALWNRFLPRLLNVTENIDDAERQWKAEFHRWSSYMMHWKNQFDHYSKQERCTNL
Chain of Acetylcholinesterase (Homo sapiens, UniProt P22303) (P22303 whole entry): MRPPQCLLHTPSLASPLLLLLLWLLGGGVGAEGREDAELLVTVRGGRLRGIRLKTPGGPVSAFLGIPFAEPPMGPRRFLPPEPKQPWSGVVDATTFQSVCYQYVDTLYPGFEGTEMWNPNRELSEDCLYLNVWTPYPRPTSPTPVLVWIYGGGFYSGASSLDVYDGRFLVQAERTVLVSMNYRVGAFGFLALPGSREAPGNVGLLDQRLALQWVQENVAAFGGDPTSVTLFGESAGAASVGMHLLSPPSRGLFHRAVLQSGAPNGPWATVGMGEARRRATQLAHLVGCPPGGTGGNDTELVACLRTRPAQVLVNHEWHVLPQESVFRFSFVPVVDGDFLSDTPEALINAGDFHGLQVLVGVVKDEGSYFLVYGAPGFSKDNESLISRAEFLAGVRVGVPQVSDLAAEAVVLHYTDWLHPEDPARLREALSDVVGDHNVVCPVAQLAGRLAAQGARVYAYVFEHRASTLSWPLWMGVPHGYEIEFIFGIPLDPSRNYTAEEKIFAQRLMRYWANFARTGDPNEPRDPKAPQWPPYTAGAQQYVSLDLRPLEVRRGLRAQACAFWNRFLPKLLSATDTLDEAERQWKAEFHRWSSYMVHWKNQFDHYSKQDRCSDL
T3 sequence (P81908 whole entry): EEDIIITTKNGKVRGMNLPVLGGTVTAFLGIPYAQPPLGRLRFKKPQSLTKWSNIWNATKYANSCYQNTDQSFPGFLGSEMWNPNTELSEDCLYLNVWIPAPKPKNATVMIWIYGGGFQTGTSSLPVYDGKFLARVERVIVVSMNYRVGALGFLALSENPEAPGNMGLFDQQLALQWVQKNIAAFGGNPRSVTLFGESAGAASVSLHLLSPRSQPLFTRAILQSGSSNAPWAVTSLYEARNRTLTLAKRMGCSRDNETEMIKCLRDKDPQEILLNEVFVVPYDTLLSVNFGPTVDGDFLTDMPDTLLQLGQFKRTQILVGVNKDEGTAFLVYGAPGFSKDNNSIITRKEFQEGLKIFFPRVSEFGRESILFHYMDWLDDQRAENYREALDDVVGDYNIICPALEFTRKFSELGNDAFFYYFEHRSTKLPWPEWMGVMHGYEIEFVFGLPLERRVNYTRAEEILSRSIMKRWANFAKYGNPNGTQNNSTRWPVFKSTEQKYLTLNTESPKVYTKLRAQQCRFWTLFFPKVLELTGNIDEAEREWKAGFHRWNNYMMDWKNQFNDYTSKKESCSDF
Chain of Cholinesterase (Equus caballus) (P81908 whole entry): as above

| Compound | pKi [4] | pIC50 [5] | pKi [8] | pIC50 [9] | pKi [11] | pKi [13] | other results |
| --- | --- | --- | --- | --- | --- | --- | --- |
| COc1ccc(CCOCCCCCNc2c3c(nc4ccccc24)CCCC3)cc1OC | 7.26 | 9.29 | 8.72 | 6.77 | 6.77 | 8.15 | inhibition [1]: 63.8%; Activity [2]: inactive; Ratio IC50 [3]: 85; Activity [6]: Active; viability at 24 h, 25 µM [7]: 60 to 70%; Stability [10]: Stable; Activity [12]: Non-Toxic |
| COc1ccc(CNc2c3c(nc4ccccc24)CCCC3)cc1OC | 6.68 |  | 8.19 |  | 6.19 | 7.51 |  |
| Oc1ccc(CNCCCCCCNc2c3c(nc4ccccc24)CCCC3)cc1O | 7.24 | 7.64 | 8.77 | 7.54 | 6.92 | 8.10 |  |
| Oc1cc(/C=N/c2c3c(nc4ccccc24)CCCC3)cc(O)c1O | 6.77 | 6.92 | 8.24 | 5.98 | 6.40 | 7.29 |  |
| Oc1ccc(/C=N/c2c3c(nc4ccccc24)CCCC3)cc1 | 5.74 | 6.71 | 7.77 | 5.83 | 5.52 |  | inhibition [14]: Active |
| C(=N\c1c2c(nc3ccccc13)CCCC2)/c1ccc(OCc2ccccc2)c(OCc2ccccc2)c1 | 4.70 |  | 6.76 |  | 4.62 | 6.20 |  |
| Oc1ccc(CCOCCCCCNc2c3c(nc4ccccc24)CCCC3)cc1 | 7.00 | 8.22 | 8.35 | 6.85 | 6.85 |  | inhibition [1]: 54.4%; inhibition [14]: Active |
| Oc1ccc(CCNc2c3c(nc4ccccc24)CCCC3)cc1O | 6.23 |  | 7.55 |  | 6.06 | 6.89 |  |
| BrCCCCCOCCc1ccc(OCc2ccccc2)cc1 |  |  |  |  |  |  | GI50 [15]: 92000 nM; GI50 [16]: 93000 nM; GI50 [17]: > 100000 nM; GI50 [18]: > 100000 nM; GI50 [19]: > 100000 nM; GI50 [20]: > 100000 nM |
| c1ccc2c(N3CCCCC3)c3c(nc2c1)CCCC3 | 5.60 |  | 6.56 |  | 5.74 | 5.72 | GI50 [15]: 5200 nM; GI50 [16]: 11000 nM; GI50 [17]: 19000 nM; GI50 [18]: 13000 nM; selectivity ratio at 48 h [21]: 5; RatioGI50 [22]: 10; GI50 at 48 h [23]: 25000 nM; selectivity ratio at 48 h [24]: 5; GI50 [19]: 13000 nM; GI50 [20]: 4500 nM; RatioGI50 [25]: 10 |
| c1ccc(COc2ccc(CCOCCCCCNc3c4c(nc5ccccc35)CCCC4)cc2OCc2ccccc2)cc1 | 6.89 | 9.30 | 8.57 | 6.30 | 6.47 | 8.34 | inhibition [1]: 75.3%; viability at 24 h, 1 µM [26]: 50%; Activity [2]: inactive; Ratio IC50 [3]: 85; Activity [27]: Toxic |
| COc1ccc(CNCCCCCNc2c3c(nc4ccccc24)CCCC3)cc1OC | 6.92 |  | 8.00 |  | 6.80 | 7.52 |  |
| C(=N\c1c2c(nc3ccccc13)CCCC2)/c1ccc(OCc2ccccc2)cc1 | 4.64 |  | 6.19 |  | 4.41 | 5.53 |  |
| c1ccc2c(N3CCCC3)c3c(nc2c1)CCCC3 |  |  | 6.52 |  | 5.49 | 5.92 | GI50 [15]: 18000 nM; GI50 [16]: 24000 nM; GI50 [17]: 27000 nM; GI50 [18]: 26000 nM; GI50 at 48 h [23]: 50000 nM; GI50 [19]: 18000 nM; GI50 [20]: 21000 nM |
| Oc1ccc(CCNc2c3c(nc4ccccc24)CCCC3)cc1 | 7.49 |  |  |  | 6.96 | 6.74 | inhibition [14]: Active |
| COc1ccc(CCOCCCCCNc2c3c(nc4ccccc24)CCCC3)cc1 | 7.12 | 8.53 | 8.54 | 6.67 | 7.12 | 7.54 | inhibition [1]: 63.5% |
| COc1ccc(/C=N/c2c3c(nc4ccccc24)CCCC3)cc1OC | 5.72 |  | 7.46 |  | 5.60 | 6.57 | GI50 [15]: 35000 nM; GI50 [16]: 34000 nM; GI50 [17]: 43000 nM; GI50 [18]: 39000 nM; GI50 at 48 h [23]: 16000 nM; GI50 [19]: 43000 nM; inhibition [28]: Active; GI50 [20]: 31000 nM |
| Oc1ccc(CNc2c3c(nc4ccccc24)CCCC3)cc1 | 7.09 |  | 8.49 |  | 6.43 | 7.92 | inhibition [28]: Active |
| Oc1ccc(CNc2c3c(nc4ccccc24)CCCC3)cc1O | 6.72 | 7.13 | 8.49 | 7.00 | 6.72 | 7.60 |  |
| Oc1ccc(CCOCCCCCNc2c3c(nc4ccccc24)CCCC3)cc1O | 7.11 | 7.45 | 8.05 | 6.27 | 6.68 | 7.37 | inhibition [28]: Active |
| c1ccc(COc2ccc(CCNc3c4c(nc5ccccc35)CCCC4)cc2)cc1 | 6.21 |  | 8.96 |  | 5.80 | 7.66 |  |
| c1ccc(COc2ccc(CCNc3c4c(nc5ccccc35)CCCC4)cc2OCc2ccccc2)cc1 | 6.21 |  | 8.96 |  | 5.80 | 7.66 |  |
| C(=N\c1c2c(nc3ccccc13)CCCC2)/c1cc(OCc2ccccc2)c(OCc2ccccc2)c(OCc2ccccc2)c1 | 5.52 |  | 6.72 |  | 5.64 | 6.15 |  |
| Oc1ccc(/C=N/c2c3c(nc4ccccc24)CCCC3)cc1O | 6.09 | 7.38 | 8.72 | 6.22 | 5.68 | 7.96 |  |
| c1ccc(COc2ccc(CCOCCCCCNc3c4c(nc5ccccc35)CCCC4)cc2)cc1 | 6.96 | 8.16 | 8.82 | 6.34 | 6.96 | 8.72 | inhibition [1]: 70% |
| O=c1[nH]cc(F)c(=O)[nH]1 [FLUOROURACIL] |  |  |  |  |  |  | GI50 [15]: 47000 nM; GI50 [17]: 5500 nM; GI50 [18]: 4300 nM; GI50 [19]: 15000 nM; GI50 [20]: 49000 nM |
